Laboratory results published in paper PMC4489196, “Visualization of regional tau deposits using ^3H-THK5117 in Alzheimer brain tissue” (Acta Neuropathologica Communications, 2015).
Where “and” joins values, the source holds several entries; their conditions need not be identical. Equal entries are not always repeated. Where two headings read alike, the source gives them in different places.

Assays:
[1] = target: ^3H-THK5117 binding sites in AD temporal cortex homogenates (tau) (Homo sapiens, UniProt P10636); assay: Competition binding against ^3H-THK5117 (3 nM) in temporal cortex homogenates; details: for Ki: AD temporal cortices
Experimental: (§1) Human brain tissues from eight Alzheimer patients and eight controls were obtained from the Netherlands Brain Bank (demographic details in Table 1), and homogenized in PBS containing 0.1 % BSA and protease/phosphatase inhibitor.
(§2) The specificity and selectivity of ^3H-THK5117 binding was determined by incubating homogenates (0.1 mg tissue) from Alzheimer’s patients’ temporal cortex and hippocampus with ^3H-THK5117 (3 nM), in the presence of THK5117 (10^−5 -10^−13 M), FDDNP (10^−6 -10^−14 M) or BTA-1 (10^−5 -10^−13 M). The results were analyzed with GraphPad Prism software, and the resulting inhibitory constants (Ki) were determined.

[2] = test system: ^3H-PIB binding sites (amyloid); assay: Competition between ^3H-PIB and unlabeled THK5117; parameters: species or system Human
neurofibrillary tangles = neurofibrillary tangles (Homo sapiens, UniProt P10636); assay: THK5117 autofluorescence staining with adjacent AT8 immunostaining; format: binding; details: paraffin hippocampus section of another AD case; confirmed with AT8 on adjacent section
Text: A paraffin section from hippocampus of a patient with confirmed AD (at death, Braak VI, from the Netherlands brain bank) were quenched and stained with THK5117 following the procedure used by Okamura and colleagues for autofluorescence studies. An adjacent section was labeled with AT8 anti-tau and assessed using the EnVision + System HRP (DAB) (Dako Denmark) detection method.

[3] = test system: ^3H-THK5117 binding sites in hippocampus homogenates of one AD case (tau); assay: Competition binding THK5117 against ^3H-THK5117 (3 nM) in hippocampus homogenates; parameters: species or system Human
Experimental: as §1, §2
A. Saturation binding curve and B. Scatchard plot of ^3H-THK5117 (0.04-270nM) for hippocampus homogenates of one AD patient. The plain regression line was determined by GraphPad Prism software and corresponds to the low affinity site. The dotted regression line was determined manually and corresponds to the high affinity site. Corresponding Kd and Bmax values are mentioned below the curve. C. Competition binding curve between THK5117 (10^-13-10^-5M) and ^3H-THK5117 (3nM) for hippocampus homogenates of one AD case. […] Ki Sup Hi = Ki for super high binding site; Ki Hi = Ki for high binding site; Ki Lo = Ki for low binding site.

[4] = target: post-mortem AD temporal brain tissue homogenates (tau) (Homo sapiens, UniProt P10636); assay: Saturation binding assay of ^3H-THK5117 in temporal cortex homogenates; details: AD temporal lobe homogenates
Experimental: as §1
(§3) Saturation binding assays were carried out with incubation of temporal cortex and hippocampus homogenates (0.1 mg tissue) with ^3H-THK5117 (0.04-270 nM) for 2 h at room temperature. Non-specific binding was determined with 1 μM THK5117. The binding reaction was terminated by filtering through glass fiber filters (pre-soaked for 3 h in 0.3 % polyethylenimine), and rinsing three times with cold binding buffer, and counted with a beta scintillation counter (Beckman Coulter LS6500). The results were analyzed with GraphPad Prism software (version 5.0f for Mac OS X, GraphPad Software, San Diego California USA). The equilibrium dissociation constant (Kd) and maximum number of binding sites (Bmax) were then determined.

[5] = target: hippocampus homogenates of one AD patient (tau) (Homo sapiens, UniProt P10636); assay: Saturation binding assay of ^3H-THK5117 in hippocampus homogenates; details: one Alzheimer brain
Experimental: as §1, §3

[6] = test system: brain homogenates from patients with AD (tau); assay: Regional binding studies with ^3H-THK5117 (3 nM) in brain homogenates; parameters: species or system Human; details: AD cases
Experimental: as §1
Regional binding studies with ^3H-THK5117 were carried out on the brain homogenates from temporal cortex, frontal lobe, parietal lobe, caudate nucleus, hippocampus and cerebellum that were incubated with a single concentration of ^3H-THK5117 (3 nM). Non-specific binding was determined with 1 μM of THK5117. Comparisons between AD and control tissues were made using Mann–Whitney non-parametrical tests, with a threshold for significance of p < 0.05.

[7] = test system: frozen brain sections from left hemispheres of AD cases and control case (tau); assay: ^3H-THK5117 autoradiography on large frozen brain hemisphere sections; format: binding, Human
Text: Postmortem brain tissue for autoradiography studies was obtained from three patients with AD that all three had been clinically followed (by A.N.) at the Department of Geriatric Medicine, Karolinska University Hospital, Huddinge, Sweden. The left hemisphere of each brain was frozen in large block sections. The right hemispheres were fixed in formaldehyde, brain tissue was sampled according to the BrainNet Europe protocol and histopathological investigations were undertaken (by I.N.) to confirm AD pathology (see Additional file 1).
Frozen brain sections ([…]) from the left hemispheres of the three AD cases and the healthy control case were cut with a cryostat at −20 °C and thaw-mounted on chrome alum gelatin-subbed slides following a previously described protocol.
For each case, frozen sections were dried, pre-incubated for 10 min with PBS + 0.1%BSA, and were then incubated for one hour with 4 nM ^3H-THK5117. The non-specific binding assay was performed on adjacent sections in the presence of 10 μM THK5117. After incubation, sections were washed 3 times for 5 min with cold incubation buffer, dipped into cold distilled water, and allowed to dry for at least 24 h. A Fujifilm BAS-2500 phosphor imaging plate was then exposed to the section, along with a tritium standard, for three days (Larodan Fine Chemical AB, Malmö, Sweden) before being scanned by a phosphoimager Fujifilm BAS-2500.
Binding of the tracer was quantitatively assessed using MultiGauge Fujifilm software (V3.0). Two independent raters manually segmented different regions of interest, as defined by Duvernoy in “The Human Hippocampus” [19], resulting in regional mean uptake values for each segment. Inter-rater agreement was assessed for all uptake values using a Bland-Altman plot, with limits of agreement set to 95 %. When agreement was satisfactory, regional uptake values from both raters were averaged for subsequent analyses.

[8] = test system: tau (AT8) in paraffin sections of anterior and posterior hippocampus; assay: ^3H-THK5117 autoradiography versus AT8 immunostaining on paraffin hippocampus sections; format: binding, Human; details: adjacent paraffin sections, AD case one
Text: Routine pathology with AT8 has been performed on anterior and posterior hippocampus paraffin sections from the right hemisphere of the three AD cases. Autoradiographies with ^3H-THK5117 on adjacent sections have been performed after deparafinization following the same protocol as cited above.

Chain of ^3H-THK5117 binding sites in AD temporal cortex homogenates (tau) (P10636 623-708 limits assumed): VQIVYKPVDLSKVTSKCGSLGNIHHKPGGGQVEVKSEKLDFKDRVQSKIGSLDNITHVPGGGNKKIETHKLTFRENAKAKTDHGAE
Chain of hippocampus homogenates of one AD patient (tau) (P10636 623-695 limits assumed): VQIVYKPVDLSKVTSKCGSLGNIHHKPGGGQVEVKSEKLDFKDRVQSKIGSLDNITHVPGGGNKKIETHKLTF
Chain of post-mortem AD temporal brain tissue homogenates (tau) (P10636 623-758 limits assumed): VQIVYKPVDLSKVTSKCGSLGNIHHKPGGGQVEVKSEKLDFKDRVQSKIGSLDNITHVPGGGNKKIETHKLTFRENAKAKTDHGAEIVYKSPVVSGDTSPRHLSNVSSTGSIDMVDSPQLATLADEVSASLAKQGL
Chain of neurofibrillary tangles (P10636 623-758 limits assumed): as above

Work on `CNc1ccc(-c2ccc3cc(OCC(O)CF)ccc3n2)cc1` (stereo not shown) [THK5117] yielded a Ki ([1]; ^3H-THK5117 3 nM, averaged from ten experiments, read-out: Ki2) of 16 nM, a Ki ([1]; ^3H-THK5117 3 nM, averaged from ten experiments, read-out: Ki3) of 750 nM and a Ki ([1]; potential third site, model constraint >100 for start of curve, ten experiments, read-out: Ki1) of 0.001 nM. For the same compound, the “Competition between ^3H-PIB and unlabeled THK5117” value [2] was “No competition”, the Autofluorescence staining (neurofibrillary tangles) was “THK5117 binding on the neurofibrillary tangles” and the “Number of binding sites in competition binding curve” value [3] was “two different binding sites”.
`CNc1ccc(-c2ccc3cc(OCC(O)CF)ccc3n2)cc1` (stereo not shown) [^3H-THK5117, 1-Fluoro-3-((2-(4-([^3H]methylamino)phenyl)quinolin-6-yl)oxy)propan-2-ol] was tested, and the Kd ([4]; high affinity site, determined manually from Scatchard plot, averaged from seven experiments, read-out: Kd1) was 2.2 nM, the Kd ([4]; low affinity site (GraphPad Prism fit), read-out: Kd2) was 24 nM and 23.6 nM and the Kd ([5]; high affinity site, read-out: Kd, first binding site) was 3.1 nM. It also gave a Kd ([5]; low affinity site, read-out: Kd, second binding site) of 34 nM.
`[3H]CNc1ccc(-c2ccc3cc(OCC(O)CF)ccc3n2)cc1` (stereo not shown) [^3H-THK5117, 1-Fluoro-3-((2-(4-([^3H]methylamino)phenyl)quinolin-6-yl)oxy)propan-2-ol] was tested, and the Bmax1 ([4]; high affinity site, determined manually from Scatchard plot) was 250 fmol/mg, the Bmax2 ([4]; low affinity site (GraphPad Prism fit)) was 1416 fmol/mg and the “Bmax, first binding site” value ([5]; high affinity site) was 250 fmol/mg. The “Bmax, second binding site” value ([5]; low affinity site) was 1226 fmol/mg, the “Regional binding of ^3H-THK5117” value ([6]; caudate nucleus homogenates) was 198 ± 30 fmol/mg and the “Regional binding of ^3H-THK5117” value ([6]; cerebellum homogenates) was “very low”. The “Regional binding of ^3H-THK5117” value ([6]; hippocampus homogenates) was 198 ± 67 fmol/mg, the “Regional binding of ^3H-THK5117” value ([6]; parietal lobe homogenates) was 105 ± 46 fmol/mg and the “Regional binding of ^3H-THK5117” value ([6]; temporal lobe homogenates) was 110 ± 47 fmol/mg. For the same compound, the “^3H-THK5117 specific binding” value ([7]; Amygdala, AD Case 1) was 507 fmol/mg, the “^3H-THK5117 specific binding” value ([7]; Cingulate gyrus, AD Case 1) was 292 fmol/mg and the “^3H-THK5117 specific binding” value ([7]; Cingulate gyrus, AD Case 2) was 120 fmol/mg. The “^3H-THK5117 specific binding” value ([7]; Cingulate gyrus, AD Case 3) was 110 fmol/mg, the “^3H-THK5117 specific binding” value ([7]; Entorhinal cortex, AD Case 1) was 713 fmol/mg and the “^3H-THK5117 specific binding” value ([7]; Entorhinal cortex, AD Case 2) was 126 fmol/mg. The “^3H-THK5117 specific binding” value ([7]; Entorhinal cortex, AD Case 3) was 53 fmol/mg, the “^3H-THK5117 specific binding” value ([7]; Fusiform gyrus, AD Case 1) was 585 fmol/mg and the “^3H-THK5117 specific binding” value ([7]; Fusiform gyrus, AD Case 2) was 189 fmol/mg. The “^3H-THK5117 specific binding” value ([7]; Fusiform gyrus, AD Case 3) was 52 fmol/mg, the “^3H-THK5117 specific binding” value ([7]; Hippocampus, AD Case 1) was 693 fmol/mg and the “^3H-THK5117 specific binding” value ([7]; Hippocampus, AD Case 2) was 171 fmol/mg. For the same compound, the “^3H-THK5117 specific binding” value ([7]; Hippocampus, AD Case 3) was 112 fmol/mg, the “^3H-THK5117 specific binding” value ([7]; Inferior temporal gyrus, AD Case 1) was 764 fmol/mg and the “^3H-THK5117 specific binding” value ([7]; Inferior temporal gyrus, AD Case 2) was 125 fmol/mg. For the same compound, the “^3H-THK5117 specific binding” value ([7]; Inferior temporal gyrus, AD Case 3) was 59 fmol/mg, the “^3H-THK5117 specific binding” value ([7]; Insular cortex, AD Case 1) was 423 fmol/mg and the “^3H-THK5117 specific binding” value ([7]; Insular cortex, AD Case 2) was 68 fmol/mg. For the same compound, the “^3H-THK5117 specific binding” value ([7]; Insular cortex, AD Case 3) was 50 fmol/mg, the “^3H-THK5117 specific binding” value ([7]; Middle frontal gyrus, AD Case 1) was 276 fmol/mg and the “^3H-THK5117 specific binding” value ([7]; Middle frontal gyrus, AD Case 2) was 55 fmol/mg. For the same compound, the “^3H-THK5117 specific binding” value ([7]; Middle frontal gyrus, AD Case 3) was 56 fmol/mg, the “^3H-THK5117 specific binding” value ([7]; Middle temporal gyrus, AD Case 1) was 495 fmol/mg and the “^3H-THK5117 specific binding” value ([7]; Middle temporal gyrus, AD Case 2) was 140 fmol/mg. The “^3H-THK5117 specific binding” value ([7]; Middle temporal gyrus, AD Case 3) was 48 fmol/mg, the “^3H-THK5117 specific binding” value ([7]; Postcentral gyrus, AD Case 1) was 312 fmol/mg and the “^3H-THK5117 specific binding” value ([7]; Postcentral gyrus, AD Case 2) was 77 fmol/mg. For the same compound, the “^3H-THK5117 specific binding” value ([7]; Postcentral gyrus, AD Case 3) was 75 fmol/mg, the “^3H-THK5117 specific binding” value ([7]; Precentral gyrus, AD Case 1) was 310 fmol/mg and the “^3H-THK5117 specific binding” value ([7]; Precentral gyrus, AD Case 2) was 32 fmol/mg. The “^3H-THK5117 specific binding” value ([7]; Precentral gyrus, AD Case 3) was 102 fmol/mg, the “^3H-THK5117 specific binding” value ([7]; Putamen, AD Case 1) was 242 fmol/mg and the “^3H-THK5117 specific binding” value ([7]; Superior frontal gyrus, AD Case 1) was 344 fmol/mg. The “^3H-THK5117 specific binding” value ([7]; Superior frontal gyrus, AD Case 2) was 57 fmol/mg, the “^3H-THK5117 specific binding” value ([7]; Superior frontal gyrus, AD Case 3) was 114 fmol/mg and the “^3H-THK5117 specific binding” value ([7]; Superior temporal gyrus, AD Case 1) was 363 fmol/mg. For the same compound, the “^3H-THK5117 specific binding” value ([7]; Superior temporal gyrus, AD Case 2) was 114 fmol/mg, the “^3H-THK5117 specific binding” value ([7]; Superior temporal gyrus, AD Case 3) was 53 fmol/mg and the “^3H-THK5117 specific binding” value ([7]; Thalamus, AD Case 1) was 349 fmol/mg. For the same compound, the “Autoradiography binding in control case” value ([7]; control case compared to the three AD cases, 4 nM) was “Low and regional binding” and the “Autoradiography binding pattern versus AT8 immunostaining” value [8] was “identical binding pattern”.
In the case of `CNc1ccc(-c2nc3ccccc3s2)cc1` [BTA-1, 2-(4-methylaminophenyl)benzothiazole, reference compound], the “Competition with ^3H-THK5117” value ([1]; temporal cortex homogenates of four AD cases, ^3H-THK5117 3 nM) is reported as “No competition”.
